Experiments:
FLT3 ITD = target: T1, FLT3 ITD (Homo sapiens, UniProt P36888); experiment: DiscoverX KINOMEscan competition binding, FLT3 ITD; details: read-out: FLT3 ITD Kd
T1 sequence (P36888 1-993): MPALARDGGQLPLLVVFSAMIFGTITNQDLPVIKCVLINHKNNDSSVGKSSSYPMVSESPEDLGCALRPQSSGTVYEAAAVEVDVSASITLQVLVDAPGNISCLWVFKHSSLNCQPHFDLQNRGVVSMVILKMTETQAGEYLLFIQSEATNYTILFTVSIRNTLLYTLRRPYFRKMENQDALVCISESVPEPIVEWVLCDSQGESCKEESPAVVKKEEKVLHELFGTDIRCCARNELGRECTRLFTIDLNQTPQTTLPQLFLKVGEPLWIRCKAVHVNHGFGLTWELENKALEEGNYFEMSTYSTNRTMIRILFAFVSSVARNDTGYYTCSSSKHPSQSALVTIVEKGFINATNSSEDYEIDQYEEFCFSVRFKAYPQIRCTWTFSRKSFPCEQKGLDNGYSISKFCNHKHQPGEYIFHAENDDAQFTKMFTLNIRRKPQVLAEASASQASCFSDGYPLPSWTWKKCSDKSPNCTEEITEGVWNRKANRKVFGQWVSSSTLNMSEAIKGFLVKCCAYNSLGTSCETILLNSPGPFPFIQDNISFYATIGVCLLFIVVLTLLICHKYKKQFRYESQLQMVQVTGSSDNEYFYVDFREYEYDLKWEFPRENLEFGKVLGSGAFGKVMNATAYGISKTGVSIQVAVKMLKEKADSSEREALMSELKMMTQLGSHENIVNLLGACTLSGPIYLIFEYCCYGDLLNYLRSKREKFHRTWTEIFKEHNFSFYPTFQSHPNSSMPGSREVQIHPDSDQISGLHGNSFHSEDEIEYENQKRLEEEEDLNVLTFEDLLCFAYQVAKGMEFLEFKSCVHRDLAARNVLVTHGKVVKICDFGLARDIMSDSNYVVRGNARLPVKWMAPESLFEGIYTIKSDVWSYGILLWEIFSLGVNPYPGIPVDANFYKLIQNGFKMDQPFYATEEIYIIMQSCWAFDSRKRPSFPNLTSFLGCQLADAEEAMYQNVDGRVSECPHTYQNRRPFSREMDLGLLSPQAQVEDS

FLT3 R834Q = target: T2, FLT3 R834Q (Homo sapiens, UniProt P36888, R834Q); experiment: DiscoverX KINOMEscan competition binding, FLT3 R834Q
T2 construct: purchased DiscoverX (KINOMEscan)
T2 sequence (P36888 27-993 R834Q): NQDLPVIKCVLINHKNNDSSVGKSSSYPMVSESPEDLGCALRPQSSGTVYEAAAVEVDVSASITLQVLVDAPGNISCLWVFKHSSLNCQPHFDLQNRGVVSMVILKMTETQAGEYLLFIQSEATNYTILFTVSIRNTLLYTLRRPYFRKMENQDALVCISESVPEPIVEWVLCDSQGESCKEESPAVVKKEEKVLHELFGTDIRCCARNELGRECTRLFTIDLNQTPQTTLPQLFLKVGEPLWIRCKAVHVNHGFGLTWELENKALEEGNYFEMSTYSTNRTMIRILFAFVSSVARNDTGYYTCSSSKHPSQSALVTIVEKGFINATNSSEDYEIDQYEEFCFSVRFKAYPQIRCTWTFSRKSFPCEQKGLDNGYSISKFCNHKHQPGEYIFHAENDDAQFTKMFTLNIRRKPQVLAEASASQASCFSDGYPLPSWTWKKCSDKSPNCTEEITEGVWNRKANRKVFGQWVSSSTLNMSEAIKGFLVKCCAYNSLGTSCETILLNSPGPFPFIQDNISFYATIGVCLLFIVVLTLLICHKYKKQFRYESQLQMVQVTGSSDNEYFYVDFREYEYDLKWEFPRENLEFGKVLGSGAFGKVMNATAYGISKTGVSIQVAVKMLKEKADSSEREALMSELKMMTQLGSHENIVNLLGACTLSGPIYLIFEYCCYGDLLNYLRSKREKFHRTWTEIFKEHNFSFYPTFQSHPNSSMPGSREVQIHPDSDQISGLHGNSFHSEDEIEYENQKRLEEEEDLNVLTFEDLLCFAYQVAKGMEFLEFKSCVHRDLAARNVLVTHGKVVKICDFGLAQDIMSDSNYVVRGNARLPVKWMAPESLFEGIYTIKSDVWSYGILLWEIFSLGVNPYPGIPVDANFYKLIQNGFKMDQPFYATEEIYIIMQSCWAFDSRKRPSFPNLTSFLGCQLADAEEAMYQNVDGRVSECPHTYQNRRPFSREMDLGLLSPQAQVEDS

IRAK1 = IRAK1 (Homo sapiens, UniProt P51617); experiment: DiscoverX KINOMEscan competition binding, IRAK1; design: purchased RBC (Reaction Biology) HotSpot assay
Chain of IRAK1 (P51617 whole entry): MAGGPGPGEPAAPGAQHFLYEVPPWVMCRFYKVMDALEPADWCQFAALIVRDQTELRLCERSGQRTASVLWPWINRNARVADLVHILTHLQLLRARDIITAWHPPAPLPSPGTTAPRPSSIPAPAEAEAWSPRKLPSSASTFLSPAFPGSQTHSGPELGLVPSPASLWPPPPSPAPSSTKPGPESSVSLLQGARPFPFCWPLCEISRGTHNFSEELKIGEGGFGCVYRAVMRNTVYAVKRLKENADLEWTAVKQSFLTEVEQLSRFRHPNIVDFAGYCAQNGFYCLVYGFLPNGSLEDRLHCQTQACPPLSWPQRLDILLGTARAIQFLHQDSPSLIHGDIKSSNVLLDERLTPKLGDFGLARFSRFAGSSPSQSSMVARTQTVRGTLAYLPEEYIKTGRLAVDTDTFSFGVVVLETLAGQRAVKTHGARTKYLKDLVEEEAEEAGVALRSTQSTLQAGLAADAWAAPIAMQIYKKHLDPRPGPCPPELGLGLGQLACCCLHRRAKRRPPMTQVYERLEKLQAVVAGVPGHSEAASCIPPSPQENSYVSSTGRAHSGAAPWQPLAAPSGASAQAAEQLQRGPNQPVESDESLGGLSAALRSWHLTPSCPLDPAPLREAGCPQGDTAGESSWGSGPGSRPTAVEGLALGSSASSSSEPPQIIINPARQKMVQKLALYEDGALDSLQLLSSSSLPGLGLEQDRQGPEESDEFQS

IRAK4 [1] = target: T3, IRAK4 (Homo sapiens, UniProt Q9NWZ3); experiment: DiscoverX KINOMEscan competition binding, IRAK4; design: purchased RBC (Reaction Biology) HotSpot assay
T3 sequence (Q9NWZ3 1-460): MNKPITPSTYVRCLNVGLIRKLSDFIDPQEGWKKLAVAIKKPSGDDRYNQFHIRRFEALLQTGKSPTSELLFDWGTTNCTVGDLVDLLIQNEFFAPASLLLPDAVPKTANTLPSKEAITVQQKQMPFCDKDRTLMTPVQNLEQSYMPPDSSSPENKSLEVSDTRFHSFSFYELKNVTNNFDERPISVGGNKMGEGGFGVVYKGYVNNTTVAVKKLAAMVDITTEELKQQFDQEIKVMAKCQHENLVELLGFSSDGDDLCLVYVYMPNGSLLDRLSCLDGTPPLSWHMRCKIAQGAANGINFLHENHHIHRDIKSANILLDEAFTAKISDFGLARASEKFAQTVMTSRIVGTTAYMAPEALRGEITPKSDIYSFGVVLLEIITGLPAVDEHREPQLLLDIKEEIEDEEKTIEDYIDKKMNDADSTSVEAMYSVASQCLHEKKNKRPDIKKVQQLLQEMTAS

IRAK4 [2] = target: T3, IRAK4; experiment: Reaction Biology NanoBRET target engagement assay in HEK-293 cells, IRAK4; details: NanoBRET IRAK4 IC50, HEK-293 cells

| Compound | Kd (FLT3 ITD) [nM] | Kd (FLT3 R834Q) [nM] | Kd (IRAK1) [nM] | Kd (IRAK4 [1]) [nM] | IC50 (IRAK4 [2]) [nM] |
| --- | --- | --- | --- | --- | --- |
| CC(O)(c1cn2c(-c3ccnc(N[C@H]4CNCC[C@@H]4F)n3)cnc2cn1)C(F)(F)F (single isomer, unassigned) [Compound 72] | 0.62 | 14 | 1.5 | 0.38 | < 0.5 |
| F[C@H]1CCNC[C@@H]1Nc1cncc(-c2cnc3cc(OC4CC4)ccn23)n1 [Compound 12, 6-(7-cyclopropoxyimidazo[1,2-a]pyridin-3-yl)-N-((3S,4S)-4-fluoropiperidin-3-yl)pyrazin-2-amine] | 0.87 | 18 | 7.5 | 0.81 | 1 |
| COc1cc2ncc(-c3cncc(N[C@H]4CNC[C@@H]4F)n3)n2nc1C1CC1 [Compound 22, 6-(6-cyclopropyl-7-methoxyimidazo[1,2-b]pyridazin-3-yl)-N-((3S,4S)-4-fluoropyrrolidin-3-yl)pyrazin-2-amine] | 0.67 | 9.3 | 6.4 | 0.84 | 9 |
| COc1cc2ncc(-c3cncc(N[C@H]4CNCC[C@@H]4F)n3)n2nc1C1CC1 [Compound 24, 6-(6-cyclopropyl-7-methoxyimidazo[1,2-b]pyridazin-3-yl)-N-((3S,4S)-4-fluoropiperidin-3-yl)pyrazin-2-amine] | 0.97 | 1.8 | 5.3 | 0.22 | 1 |
| COc1cc2ncc(-c3ccnc(N[C@@H]4CCCNC4)n3)n2cc1C(C)(C)O [Compound 44, (R)-2-(7-methoxy-3-(2-(piperidin-3-ylamino)pyrimidin-4-yl)imidazo[1,2-a]pyridin-6-yl)propan-2-ol] | 0.42 | 1.4 | 0.3 | 0.072 | < 0.5 |
| COc1cc2ncc(-c3ccnc(N[C@H]4CNC[C@@H]4F)n3)n2nc1C1CC1 [Compound 49, 4-(6-cyclopropyl-7-methoxyimidazo[1,2-b]pyridazin-3-yl)-N-((3S,4S)-4-fluoropyrrolidin-3-yl)pyrimidin-2-amine] | 0.59 | 1.4 | 2.6 | 0.56 |  |
| COc1cc2ncc(-c3ccnc(N[C@H]4CNCC[C@@H]4F)n3)n2nc1C1CC1 [Compound 51, 4-(6-cyclopropyl-7-methoxyimidazo[1,2-b]pyridazin-3-yl)-N-((3S,4S)-4-fluoropiperidin-3-yl)pyrimidin-2-amine] | 2 | 1.1 | 2.4 | 0.57 | 1 |

— patent US20250154144A1 (CHILDREN'S HOSPITAL MEDICAL CENTER, priority 2021, published 2025)
